Test results as given in patent US5484803A, “Transcutaneous in vivo activation of photosensitive agents in blood” (priority 1995, dated 1996).
Several values for one entry are separate records, joined by “and”; a condition that tells them apart may be missing. Identical values can stand only once.

Key:
[1] = Transcutaneous activation: photodegradation of BPD in plasma in vivo; design: species or system mice; settings: for BPD in Plasma: individual values; for photodegraded BPD, Dose / Photodegraded BPD: in vivo
Source text: The light box was custom built at a workshop at the University of British Columbia. It was composed of two layers of 14 75 W tungsten-halogen reflector bulbs (General Electric), which illuminated the treatment area from the top and from the bottom. Light was filtered by 1) a set of filters comprising yellow and red plastic films which absorbed most of the light at wavelengths shorter than 600 nm and 2) 15 mm thick water filters which absorbed light above 900 nm. Cooling was provided by a steady flow of cold water in the water filters and by a set of 5 fans. The light intensity was measured by an IL 1350 Photometer (International Light).
The intensity of light delivered by the top and bottom sets of bulbs was not uniform. The bottom set delivered 33-40 mW/cm^2 as measured at floor level of the exposure chamber, while the top set delivered 27-33 mW/cm^2 as measured at the skin surface of the backs of the animals. The range described resulted from inconsistent influence at the horizontal plane of irradiation. In addition, mice moved about during light exposure, so that at various times different parts of their skin received different amounts of light. Therefore, the doses delivered to the surface of mice skin must be approximated and the calculations have been based on an intensity of 30 mW/cm^2.
Determination of BPD Concentration in Plasma: Plasma samples were obtained by centrifugation of blood collected from mice and stored frozen at -20° C. until assessment. The concentration of BPD in the samples was determined by fluorometry using a Jasco Model FP-770 (Japan Spectroscopic Co.) spectrofluorometer and a microcuvette (Far UV Quartz Cell, Starna Cells Inc.). Excitation and emission wavelengths were 439 and 699 nm, respectively. Plasma samples were diluted 20-fold with PBS containing 1% Triton® X-100 immediately before fluorescence was determined. BPD standards were prepared in 5% mouse plasma in PBS with 1% Triton® X-100. Under these conditions the relationship between the concentration of BPD and units of fluorescence was linear (correlation coefficient >0.99) for concentrations between 0.1 ng/ml and 1 μg/ml. The limit of detection was below 0.1 ng/ml sample which corresponded to 2 ng/ml plasma. […] The 699 nm fluorescence peak of BPD was virtually free from any interference.
Fourteen mice (weight 22±1 g) were used in this study. Twelve mice were injected with 20 μg (0.9 mg/kg) of liposomal BPD (in 200 μl) and kept in the dark for 1 hour before exposure to light. The mice each were exposed to light for 30 min, 1 hour or 1.5 hours, which delivered light doses to the skin surface of 54, 108 and 162 J/cm^2, respectively. Immediately after light exposure, blood samples were obtained. At the corresponding times, blood samples were obtained from two mice injected with BPD, but not exposed to light. Two additional mice were tested one hour after injection.
The aim of this study was to determine light penetration of the tissues to activate BPD. It was assumed that the substantial photodegradation of BPD in blood would represent substantial activation of BPD.
The BPD plasma concentration was then determined by fluorescence. The concentrations of unchanged BPD in the plasma of exposed and unexposed control mice were compared.

[2] = tested on: L1210 cells; assay: Surviving clonogenic L1210 cells in mouse blood; assay type: in vivo, Balb/c mice; settings: for Surviving cells in blood: average of 3 mice/group
Experimental: (§1) Male mature DBA/2 and Balb/c mice were injected intravenously with P815 and L1210 cells, respectively, preincubated for 1 hour with BPD (liposomal) at 100 ng/ml. Immediately before animal injection, an additional 2 μg of BPD was added to the syringes containing cells. […] One group of mice (shaved and depilated) was exposed immediately to red light (600-900 nm) in the light box for 1.5 hours (162 J/cm^2); the other group was kept in the dark as the control.
(§2) Immediately after exposure to light, blood samples were obtained by a heart puncture under halothane anesthesia. The concentration of BPD in plasma of light-exposed and control mice was determined by fluorescence. The number of clonogenic tumor cells in mouse blood was determined by culturing blood samples in culture medium supplemented with 10% bovine serum, using a limiting dilution assay protocol.

[3] = tested on: P815 cells; assay: Surviving clonogenic P815 cells in mouse blood; assay type: in vivo, DBA/2 mice; settings: average of 3 mice/group
Experimental: as §1, §2

[4] = tested on: skin; settings: DBA/2, 4 mg/kg, cited from earlier work
[5] = tested on: tumor tissue, including leukemic cells; settings: cited from earlier work
[6] = 1 1/2 h - C, no light, 2 1/2 h post injection, 0.9 mg/kg, 150 min
[7] = 1 1/2 h light, 162 J/cm^2, 2 1/2 h post injection, 0.9 mg/kg, 150 min
[8] = 30 min - C, no light, 1 1/2 h post injection, 0.9 mg/kg, 90 min
[9] = 30 min light, 54 J/cm^2, 1 1/2 h post injection, 0.9 mg/kg, 90 min

Substance: benzoprophyrin derivative monoacid ring A [BPD]
- BPD in Plasma, Mean ± SD ([1]; 0 h - C, no light, 1 h post injection, 0.9 mg/kg): 1.243 ± 0.262 µg/mL
- BPD in Plasma ([1]; 0 h - C, no light, 1 h post injection, 0.9 mg/kg, 60 min): 1.428 µg/mL and 1.058 µg/mL
- BPD in Plasma, Mean ± SD [1, 6]: 0.690 ± 0.048 µg/mL
- BPD in Plasma [1, 6]: 0.724 µg/mL and 0.656 µg/mL
- BPD in Plasma, Mean ± SD [1, 7]: 0.168 ± 0.033 µg/mL
- BPD in Plasma [1, 7]: 0.191 µg/mL and 0.145 µg/mL
- BPD in Plasma, Mean ± SD [1, 8]: 0.930 ± 0.441 µg/mL
- BPD in Plasma [1, 8]: 0.618 µg/mL and 1.242 µg/mL
- BPD in Plasma, Mean ± SD [1, 9]: 0.596 ± 0.042 µg/mL
- BPD in Plasma [1, 9]: 0.566 µg/mL and 0.626 µg/mL
- BPD in Plasma, Mean ± SD ([1]; 1 h - C, no light, 2 h post injection, 0.9 mg/kg): 0.944 ± 0.421 µg/mL
- BPD in Plasma ([1]; 1 h - C, no light, 2 h post injection, 0.9 mg/kg, 120 min): 0.646 µg/mL and 1.242 µg/mL
- BPD in Plasma, Mean ± SD ([1]; 1 h light, 108 J/cm^2, 2 h post injection, 0.9 mg/kg): 0.301 ± 0.061 µg/mL
- BPD in Plasma ([1]; 1 h light, 108 J/cm^2, 2 h post injection, 0.9 mg/kg, 120 min): 0.258 µg/mL and 0.344 µg/mL
- photodegraded BPD, Dose ([1]; 54 J/cm^2): 0.334 µg/mL
- Photodegraded BPD ([1]; 54 J/cm^2, 0.9 mg/kg): 36%
- photodegraded BPD, Dose ([1]; 108 J/cm^2): 0.643 µg/mL
- Photodegraded BPD ([1]; 108 J/cm^2, 0.9 mg/kg): 68%
- photodegraded BPD, Dose ([1]; 162 J/cm^2): 0.522 µg/mL
- Photodegraded BPD ([1]; 162 J/cm^2, 0.9 mg/kg): 76%
- BPD photodegraded in blood in vivo ([1]; light doses of 54-162 J/cm^2, 0.9 mg/kg): 36-76%
- plasma concentrations of BPD at the beginning of exposure to light ([1]; present study, 0.9 mg/kg, 1 hour after injection): above 3 μg/ml
- Surviving cells in blood ([2]; Dark control): 234 L1210 cells/2 ml blood/mouse
- Surviving cells in blood ([2]; Light exposed (162 J/cm^2)): 21 L1210 cells/2 ml blood/mouse
- destruction of BPD pre-loaded tumor cells ([2]; whole body exposure to red light (L1210 and P815 examples)): a large number of BPD pre-loaded tumor cells were destroyed
- Surviving cells in blood ([3]; Dark control): 50 P815 cells/2 ml blood/mouse
- Surviving cells in blood ([3]; Light exposed (162 J/cm^2)): 8 P815 cells/2 ml blood/mouse
- immediate post-exposure changes in the skin ([4]; 153 J/cm^2 (170 mW/cm^2) at 3 h): no immediate post-exposure changes in the skin were observed
- skin necrosis ([4]; 153 J/cm^2 (170 mW/cm^2) at 3 h, within first 24 hour post-exposure, progressed up to 96 hours): severe skin necrosis
- healing of wounds ([4]; 153 J/cm^2, eventually): the wounds healed and the hair regrew
- affinity for tumor tissue versus normal cells [5]: higher affinity for tumor tissue, including leukemic cells, than for normal non-malignant cells
